The values below come from paper PMC10988762, “Inhibition of malaria and babesiosis parasites by putative red blood cell targeting small molecules” (Frontiers in Cellular and Infection Microbiology, 2024).

Series [1] deals with K562. Further details: method as in PMID 19662183. The note with it: cellular proliferation ref PMID 19662183; read-out: Micromolar IC50 (K562); cited from earlier work.
Series [2] is described as follows: in vitro. The note with it: human, uninfected RBCs (red blood cells), 1% hematocrit.
Excerpt: (§1) We analyzed samples using a volumetric MACSQuant Analyzer Flow Cytometer (Miltenyi Biotec), manually resuspending each row immediately prior to sample uptake. We recorded 10,000 total events for each condition at the instrument-defined low flow rate. We assessed all compounds in 2 separate experiments with blood from different donors. […] All samples were gated for single cell events.
For series [3], the system named is P. knowlesi YH1 strain. In words: microbe, parasite or virus in culture. The series is classed as cell-based, Plasmodium knowlesi. Conditions: Plasmodium knowlesi, 48 h, read-out: IC50 (S.D.), P. knowlesi.
The subject of series [4] is P. falciparum strain Dd2. As to the kind of experiment: Inhibitor susceptibility dose-response assay (SYBR-Green I), P. falciparum Dd2. The series is classed as cell-based, Plasmodium falciparum. Conditions: Plasmodium falciparum, DD2; 72h, ring-stage; n=3 experiments (or 2 where indicated with *); read-out: IC50 (S.D.), P. falciparum-Dd2.
For series [5], the system named is uninfected RBCs. In words: Cellular phosphatidylserine exposure assay (annexin V flow cytometry).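 Note: flow cytometry recording 10,000 events per condition, gated on single cells, with the two experiments using blood from separate donors.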 The note with it: 5x P. falciparum 3D7-IC50, % of RBCs, mean of 2 experiments. (In general: Flow cytometry measures light scatter and fluorescence of single cells or particles in a stream.)
Excerpt: as §1
For series [6], the system named is BdC9 line of B. divergens. As to the kind of experiment: Inhibitor susceptibility dose-response assay (SYBR-Green I), B. divergens. The series is classed as cell-based, Babesia divergens. Conditions: Babesia divergens; 72h, asynchronous; n=3 experiments (or 2 where indicated with *); read-out: IC50 (S.D.), B. divergens.
Series [7] relates to 293T. Further details: method as in PMID 19662183. The note with it: cellular proliferation ref PMID 19662183; read-out: Micromolar IC50 (293T); cited from earlier work.
In series [8] the test system is P. falciparum strain 3D7. As to the kind of experiment: Inhibitor susceptibility dose-response assay (SYBR-Green I), P. falciparum 3D7. The series is classed as cell-based, Plasmodium falciparum. Conditions: Plasmodium falciparum, 3D7; 72h, ring-stage; n=3 experiments (or 2 where indicated with *); read-out: IC50 (S.D.), P. falciparum-3D7.

As for `Cc1ccc(NC(=O)c2ccc(CN3CC[C@H](N(C)C)C3)c(C(F)(F)F)c2)cc1Nc1nccc(-c2cncnc2)n1` [Bafetinib], the concentration for half-maximal inhibition (IC50) – broadly, the concentration at which inhibition is half-maximal – in series [1] is 1.1 nM; in series [3], 2000 nM; in series [4], 3000 nM; in series [6], 12000 nM; in series [7], 2.2 nM; in series [8], 2000 nM. In series [2], this compound had a hemolysis at 24 h, 5 x P. falciparum 3D7-IC50 of 1%. This compound also had a hemolysis at 48 h, 5 x P. falciparum 3D7-IC50 in series [2] of 6%. This compound had a hemolysis at 72 h, 5 x P. falciparum 3D7-IC50 in series [2] of 4%. The “Phosphatidylserine exposure (%) 24h” value in series [5] (24h) worked out at 2%. In series [5] (48h), the “Phosphatidylserine exposure (%) 48h” value is on record as 2%. In addition, in series [5] (72h), the “Phosphatidylserine exposure (%) 72h” value stood at 4%.
